{
  "source": "patent US20030027745A1",
  "about": "“Diagnostic and prognostic method for evaluating ocular inflammation and oxidative stress and the treatment of the same” (priority 2001, published 2003)",
  "key": {"drusen": {"system": "drusen", "test": "Number of drusen in an ARMD patient following NAC treatment", "type": "in vivo", "details": "FIG. 2"}, "[1]": {"system": "reduced blood glutathione (GSH)", "test": "Blood glutathione (GSH) levels in an ARMD patient before and after NAC treatment", "type": "in vivo", "details": "ARMD patient taking NAC compared to the same patient before taking NAC, FIG. 1", "excerpt": "FIG. 1 is a chart showing the decreased reduced blood glutathione (GSH) levels in an Age-Related Macular Degeneration patient, prior to and following treatment of the patient with N-acetylcysteine (NAC).\nIt is known that GSH levels decrease in cells that are exposed to oxidative stress and inflammation. Decreases in GSH lead to even further increased oxidative stresses. […] Since it shown that patients with ARMD, as opposed to the control subjects, have decreased levels of GSH and that the levels of GSH increased following NAC treatment, alterations in GSH, GSSG and other factors when analyzed alone or in combination, can be used to help identify ARMD and other patients who have increased ocular oxidative stress and/or inflammation. For example, these responses may occur in the eye of ARMD or other patients as the disease progresses from its dry to wet forms or from less serious to more serious wet forms. Consequently, measurements of these factors could provide a way of diagnosing and following the progression of ARMD or other conditions in patients, especially when the measurements are made sequentially and compared repeatedly in the same individual.\nA second aspect of the invention is that the effectiveness of treatments that alter oxidative stress can be assessed by the measurement, especially sequential measurement, of blood factors. […]"}},
  "data": [
    {"molecule": "CC(=O)N[C@@H](CS)C(=O)O", "note": "[NAC, N-acetylcysteine]", "values": [
      {"measurement": "drusen (number of drusens, a retinal abnormality)", "setting": "drusen", "value": "decreased"},
      {"measurement": "GSH levels", "setting": "[1]", "value": "increased"}
    ]}
  ]
}
